# Source: patent publication US6479435B1, “Diaryl ethers and processes for their preparation and herbicidal and desiccant compositions containing them” (ISK Americas Incorporated, priority 1997, dated 2002)
# Experiments:
# Type in all cases: in vivo
# [1] = tested on: Johnsongrass (Sorghum halepense, SORHA); assay: Pre-emerge greenhouse herbicide test, phytotoxicity rating; details: 14 days after application, rating scale 0-100
# Summary of the method: (§1)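 Visual 0–100 injury rating (100 = all plants dead) taken 14 days after treatment. Rates of 125–1000 g ai/ha in acetone, 187 l/ha, were sprayed onto soil one day post-sowing; pots were surface-watered to incorporate, then bottom-watered.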
# [2] = tested on: barnyardgrass (Echinochloa crusgalli, ECHCG); assay: as above; details: 14 days after application, rating scale 0-100
# Summary of the method: as §1
# [3] = tested on: common ragweed (Ambrosia artemisiifolia L., AMBEL); assay: as above; details: 14 days after application, rating scale 0-100
# Summary of the method: as §1
# [4] = tested on: green foxtail (Setaria viridis, SETVI); assay: as above; details: 14 days after application, rating scale 0-100
# Summary of the method: as §1
# [5] = tested on: ivyleaf morningglory (Ipomoea hederacea, IPOHE); assay: as above; details: 14 days after application, rating scale 0-100
# Summary of the method: as §1
# [6] = tested on: lambsquarters (Chenopodium album, CHEAL); assay: as above; details: 14 days after application, rating scale 0-100
# Summary of the method: as §1
# [7] = tested on: large crabgrass (Digitaria sanguinalis, DIGSA); assay: as above; details: 14 days after application, rating scale 0-100
# Summary of the method: as §1
# [8] = tested on: redroot pigweed (Amaranthus retroflexus, AMARE); assay: as above; details: 14 days after application, rating scale 0-100
# Summary of the method: as §1
# [9] = tested on: sicklepod (Cassia obtusifolia, CASOB); assay: as above; details: 14 days after application, rating scale 0-100
# Summary of the method: as §1
# [10] = tested on: velvetleaf (Abutilon theophrasti, ABUTH); assay: as above; details: 14 days after application, rating scale 0-100
# Summary of the method: as §1
# [11] = tested on: field corn (Zea mays L., var. Dekalb 535, CORN); assay: Pre-emerge greenhouse test, crop damage rating; details: 14 days after application, rating scale 0-100
# Summary of the method: as §1
# [12] = tested on: upland rice (Oryza sp., var.Tebonnet, RICE); assay: Pre-emerge greenhouse test, crop damage rating; details: 14 days after application, rating scale 0-100
# Summary of the method: as §1
# [13] = tested on: soybean (Glycine max L., var. Pella 86, SOY); assay: Pre-emerge greenhouse test, crop damage rating; set-up: key to SOY crop damage rating: 0 = no damage, 100 = complete death of all plants; details: 14 days after application, rating scale 0-100
# Summary of the method: as §1
# [14] = tested on: common ragweed (Ambrosia artemisiifolia L., AMBEL); assay: Post-emerge greenhouse herbicide test, phytotoxicity rating; details: 14 days after application, scale 0-100
# Summary of the method: (§2)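 Scores use a 0 (no damage) to 100 (complete kill) scale, taken 14 days after a foliar spray. Acetone solutions with 0.25% v/v non-ionic surfactant were applied by track sprayer at 187 l/ha and 63-1000 g ai/ha to bottom-watered 2-3 leaf plants.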
# [15] = tested on: Johnsongrass (Sorghum halepense, SORHA); assay: as above; details: 14 days after application, scale 0-100
# Summary of the method: as §2
# [16] = tested on: barnyardgrass (Echinochloa crusgalli, ECHCG); assay: as above; details: 14 days after application, scale 0-100
# Summary of the method: as §2
# [17] = tested on: green foxtail (Setaria viridis, SETVI); assay: as above; details: 14 days after application, scale 0-100
# Summary of the method: as §2
# [18] = tested on: ivyleaf morningglory (Ipomoea hederacea, IPOHE); assay: as above; details: 14 days after application, scale 0-100
# Summary of the method: as §2
# [19] = tested on: lambsquarters (Chenopodium album, CHEAL); assay: as above; details: 14 days after application, scale 0-100
# Summary of the method: as §2
# [20] = tested on: large crabgrass (Digitaria sanguinalis, DIGSA); assay: as above; details: 14 days after application, scale 0-100
# Summary of the method: as §2
# [21] = tested on: redroot pigweed (Amaranthus retroflexus, AMARE); assay: as above; details: 14 days after application, scale 0-100
# Summary of the method: as §2
# [22] = tested on: velvetleaf (Abutilon theophrasti, ABUTH); assay: as above; details: 14 days after application, scale 0-100
# Summary of the method: as §2
# [23] = tested on: field corn (Zea mays L., var. Dekalb 535, CORN); assay: Post-emerge greenhouse test, crop damage rating; details: 14 days after application, scale 0-100
# Summary of the method: as §2
# [24] = tested on: upland rice (Oryza sp., var.Tebonnet, RICE); assay: Post-emerge greenhouse test, crop damage rating; details: 14 days after application, scale 0-100
# Summary of the method: as §2
# [25] = tested on: soybean (Glycine max L., var. Pella 86, SOY); assay: Post-emerge greenhouse test, crop damage rating; set-up: key to crop damage rating SOY: 0-100 scale: 0 = no damage, 100 = complete death of all plants; details: 14 days after application, scale 0-100
# Summary of the method: as §2
smiles,measurement,setting,value
O=c1n(-c2cc(Oc3ncc([N+](=O)[O-])s3)c(Cl)cc2F)c(=S)n2n1CCCC2 [Compound 8-36],SORHA phytotoxicity rating,[1]; Rate 125 g al/ha,20
same,SORHA phytotoxicity rating,[1]; Rate 250 g al/ha,50
same,ECHCG phytotoxicity rating,[2]; Rate 125 g al/ha,0
same,ECHCG phytotoxicity rating,[2]; Rate 250 g al/ha,70
same,AMBEL phytotoxicity rating,[3]; Rate 125 g al/ha,90
same,AMBEL phytotoxicity rating,[3]; Rate 250 g al/ha,100
same,SETVI phytotoxicity rating,[4]; Rate 125 g al/ha,80
same,SETVI phytotoxicity rating,[4]; Rate 250 g al/ha,99
same,IPOHE phytotoxicity rating,[5]; Rate 125 g al/ha,90
same,IPOHE phytotoxicity rating,[5]; Rate 250 g al/ha,70
same,CHEAL phytotoxicity rating,[6]; Rate 125 g al/ha,100
same,CHEAL phytotoxicity rating,[6]; Rate 250 g al/ha,100
same,DIGSA phytotoxicity rating,[7]; Rate 125 g al/ha,70
same,DIGSA phytotoxicity rating,[7]; Rate 250 g al/ha,80
same,AMARE phytotoxicity rating,[8]; Rate 125 g al/ha,100
same,AMARE phytotoxicity rating,[8]; Rate 250 g al/ha,100
same,CASOB phytotoxicity rating,[9]; Rate 125 g al/ha,90
same,CASOB phytotoxicity rating,[9]; Rate 250 g al/ha,70
same,ABUTH phytotoxicity rating,[10]; Rate 125 g al/ha,100
same,ABUTH phytotoxicity rating,[10]; Rate 250 g al/ha,100
same,CORN crop damage rating,[11]; Rate 125 g al/ha,0
same,CORN crop damage rating,[11]; Rate 250 g al/ha,20
same,RICE crop damage rating,[12]; Rate 125 g al/ha,30
same,RICE crop damage rating,[12]; Rate 250 g al/ha,70
same,SOY crop damage rating,[13]; Rate 125 g al/ha,0
same,SOY crop damage rating,[13]; Rate 250 g al/ha,100
same,phytotoxicity rating AMBEL,[14]; rate 63 g ai/ha,20
same,phytotoxicity rating AMBEL,[14]; rate 250 g ai/ha,20
same,phytotoxicity rating SORHA,[15]; rate 63 g ai/ha,30
same,phytotoxicity rating SORHA,[15]; rate 250 g ai/ha,90
same,phytotoxicity rating ECHCG,[16]; rate 63 g ai/ha,50
same,phytotoxicity rating ECHCG,[16]; rate 250 g ai/ha,40
same,phytotoxicity rating SETVI,[17]; rate 63 g ai/ha,0
same,phytotoxicity rating SETVI,[17]; rate 250 g ai/ha,30
same,phytotoxicity rating IPOHE,[18]; rate 63 g ai/ha,100
same,phytotoxicity rating IPOHE,[18]; rate 250 g ai/ha,95
same,phytotoxicity rating CHEAL,[19]; rate 63 g ai/ha,95
same,phytotoxicity rating CHEAL,[19]; rate 250 g ai/ha,99
same,phytotoxicity rating DIGSA,[20]; rate 63 g ai/ha,30
same,phytotoxicity rating DIGSA,[20]; rate 250 g ai/ha,60
same,phytotoxicity rating AMARE,[21]; rate 63 g ai/ha,100
same,phytotoxicity rating AMARE,[21]; rate 250 g ai/ha,100
same,phytotoxicity rating ABUTH,[22]; rate 63 g ai/ha,100
same,phytotoxicity rating ABUTH,[22]; rate 250 g ai/ha,100
same,crop damage rating CORN,[23]; rate 63 g ai/ha,10
same,crop damage rating CORN,[23]; rate 250 g ai/ha,10
same,crop damage rating RICE,[24]; rate 63 g ai/ha,40
same,crop damage rating RICE,[24]; rate 250 g ai/ha,30
same,crop damage rating SOY,[25]; rate 63 g ai/ha,30
same,crop damage rating SOY,[25]; rate 250 g ai/ha,90
